Measurements reported in patent publication US20130212744A1, “METHOD OF REDUCING INSECT-VECTORED VIRAL INFECTIONS” (priority 2010, published 2013).
Where two headings read alike, the source gives them in different places.

How the values were obtained:
Assay type in all cases: in vivo
[1] = system: whitefly Bemisia tabaci adults; experiment: Foliar use field trial on tomato, efficacy on whitefly adults; settings: Bemisia tabaci, foliar
Method: (§1) Two studies were carried out in Elhasanya, Egypt in 2009 on tomato plants of the variety Fayrouz with the main goal to measure efficacy on the whitefly Bemisia tabaci. The plot size was 4.8 m^2 and 6 replicates were used in the trial. Products were applied 3 times on young tomato plants at BBCH stages 14, 17 and 51 at spray intervals between 12 and 19 days. The spray volume was at the first application 350 l/ha and later 500 l/ha. The evaluation of this study was done counting the adult whiteflies (Bemisia tabaci) as well as the nymphs and the eggs in each plot. In addition to the direct whitefly effect, visual symptoms of the virus, mainly TYLCV (tomato yellow leaf curl virus) were evaluated also.
(§2) ASM=Acibenzolar-S-methyl. WG 50=Actigard® 50WG, a water-dispersible granule with the active ingredient ASM CYNT=Cyantraniliprole. WG 40=Cyazypyr®, a water dispersable granule with the active ingredient CYNT. Results on whitefly adults. Trial 1

[2] = system: whitefly Bemisia tabaci nymphs; experiment: Foliar use field trial on tomato, efficacy on whitefly nymphs; settings: Bemisia tabaci, foliar
Method: as §1, §2

[3] = system: whitefly Bemisia tabaci adults; experiment: Soil use (drench) field trial on tomato, efficacy on whitefly adults; settings: for Emax at 12.5 g/ha: 12.5 g ai/ha; for Emax at 25 g/ha: 25 g ai/ha
Method: as §1, with “Two soil applied” for “Two”, “plants” for “plants of the variety Fayrouz”, “once” for “3 times”, “stage 14 as a drench.” for “stages 14, 17 and 51 at spray intervals between 12 and 19 days.”, “350” for “350 l/ha and later 500”

[4] = system: whitefly Bemisia tabaci nymphs; experiment: Soil use (drench) field trial on tomato, efficacy on whitefly nymphs; settings: for Emax at 12.5 g/ha: 12.5 g ai/ha; for Emax at 25 g/ha: 25 g ai/ha
Method: as §1, with “Two soil applied” for “Two”, “plants” for “plants of the variety Fayrouz”, “Products were applied 3 times on young tomato plants at BBCH stages 14, 17 and 51 at spray intervals between 12 and 19 days.” left out, “350” for “350 l/ha and later 500”

CSC(=O)c1cccc2nnsc12 [ASM, S-methyl benzo[1,2,3]thiadiazole-7-carbothioate]
Emax ([1]; 12.5 g ai/hl, 5DAA1, Trial 1, read-out: % Efficacy on Adults): 53% | Emax ([1]; 12.5 g ai/hl, 5DAA1, Trial 2, read-out: % Efficacy on Adults): 53% | Emax ([1]; 12.5 g ai/hl, 5DAA2, Trial 1, read-out: % Efficacy on Adults): 45% | Emax ([1]; 12.5 g ai/hl, 5DAA2, Trial 2, read-out: % Efficacy on Adults): 45% | Emax ([1]; 12.5 g ai/hl, 5DAA3, Trial 1, read-out: % Efficacy on Adults): 55% | Emax ([1]; 12.5 g ai/hl, 5DAA3, Trial 2, read-out: % Efficacy on Adults): 55% | Emax ([1]; 12.5 g ai/hl, 10DAA1, Trial 1, read-out: % Efficacy on Adults): 43% | Emax ([1]; 12.5 g ai/hl, 10DAA1, Trial 2, read-out: % Efficacy on Adults): 43% | Emax ([1]; 12.5 g ai/hl, 10DAA2, Trial 1, read-out: % Efficacy on Adults): 37% | Emax ([1]; 12.5 g ai/hl, 10DAA2, Trial 2, read-out: % Efficacy on Adults): 37% | Emax ([1]; 12.5 g ai/hl, 10DAA3, Trial 1, read-out: % Efficacy on Adults): 46% | Emax ([1]; 12.5 g ai/hl, 10DAA3, Trial 2, read-out: % Efficacy on Adults): 46% | Emax ([1]; 12.5 g ai/hl, 15DAA3, Trial 1, read-out: % Efficacy on Adults): 38% | Emax ([1]; 12.5 g ai/hl, 15DAA3, Trial 2, read-out: % Efficacy on Adults): 38% | Emax ([1]; 12.5 g ai/hl, 20DAA3, Trial 1, read-out: % Efficacy on Adults): 12% | Emax ([1]; 12.5 g ai/hl, 20DAA3, Trial 2, read-out: % Efficacy on Adults): 12% | Emax ([1]; 12.5 g ai/hl, Avg, Trial 1, read-out: % Efficacy on Adults Avg % C): 41% | Emax ([1]; 25 g ai/hl, 5DAA1, Trial 1, read-out: % Efficacy on Adults): 59% | Emax ([1]; 25 g ai/hl, 5DAA1, Trial 2, read-out: % Efficacy on Adults): 59% | Emax ([1]; 25 g ai/hl, 5DAA2, Trial 1, read-out: % Efficacy on Adults): 52% | Emax ([1]; 25 g ai/hl, 5DAA2, Trial 2, read-out: % Efficacy on Adults): 52% | Emax ([1]; 25 g ai/hl, 5DAA3, Trial 1, read-out: % Efficacy on Adults): 57% | Emax ([1]; 25 g ai/hl, 5DAA3, Trial 2, read-out: % Efficacy on Adults): 57% | Emax ([1]; 25 g ai/hl, 10DAA1, Trial 1, read-out: % Efficacy on Adults): 43% | Emax ([1]; 25 g ai/hl, 10DAA1, Trial 2, read-out: % Efficacy on Adults): 43% | Emax ([1]; 25 g ai/hl, 10DAA2, Trial 1, read-out: % Efficacy on Adults): 39% | Emax ([1]; 25 g ai/hl, 10DAA2, Trial 2, read-out: % Efficacy on Adults): 39% | Emax ([1]; 25 g ai/hl, 10DAA3, Trial 1, read-out: % Efficacy on Adults): 49% | Emax ([1]; 25 g ai/hl, 10DAA3, Trial 2, read-out: % Efficacy on Adults): 49% | Emax ([1]; 25 g ai/hl, 15DAA3, Trial 1, read-out: % Efficacy on Adults): 40% | Emax ([1]; 25 g ai/hl, 15DAA3, Trial 2, read-out: % Efficacy on Adults): 40% | Emax ([1]; 25 g ai/hl, 20DAA3, Trial 1, read-out: % Efficacy on Adults): 22% | Emax ([1]; 25 g ai/hl, 20DAA3, Trial 2, read-out: % Efficacy on Adults): 22% | Emax ([1]; 25 g ai/hl, Avg, Trial 1, read-out: % Efficacy on Adults Avg % C): 45% | Emax ([2]; 12.5 g ai/hl, 5DAA2, Trial 1, read-out: % Efficacy on Nymphs): 5% | Emax ([2]; 12.5 g ai/hl, 5DAA2, Trial 2, read-out: % Efficacy on Nymphs): 5% | Emax ([2]; 12.5 g ai/hl, 5DAA3, Trial 1, read-out: % Efficacy on Nymphs): 62% | Emax ([2]; 12.5 g ai/hl, 5DAA3, Trial 2, read-out: % Efficacy on Nymphs): 62% | Emax ([2]; 12.5 g ai/hl, 10DAA2, Trial 1, read-out: % Efficacy on Nymphs): 52% | Emax ([2]; 12.5 g ai/hl, 10DAA2, Trial 2, read-out: % Efficacy on Nymphs): 52% | Emax ([2]; 12.5 g ai/hl, 10DAA3, Trial 1, read-out: % Efficacy on Nymphs): 46% | Emax ([2]; 12.5 g ai/hl, 10DAA3, Trial 2, read-out: % Efficacy on Nymphs): 46% | Emax ([2]; 12.5 g ai/hl, 15DAA3, Trial 1, read-out: % Efficacy on Nymphs): 42% | Emax ([2]; 12.5 g ai/hl, 15DAA3, Trial 2, read-out: % Efficacy on Nymphs): 42% | Emax ([2]; 12.5 g ai/hl, 20DAA3, Trial 1, read-out: % Efficacy on Nymphs): 27% | Emax ([2]; 12.5 g ai/hl, 20DAA3, Trial 2, read-out: % Efficacy on Nymphs): 27% | Emax ([2]; 12.5 g ai/hl, Avg, Trial 1, read-out: % Efficacy on Nymphs Avg % C): 39% | Emax ([2]; 25 g ai/hl, 5DAA2, Trial 1, read-out: % Efficacy on Nymphs): 57% | Emax ([2]; 25 g ai/hl, 5DAA2, Trial 2, read-out: % Efficacy on Nymphs): 57% | Emax ([2]; 25 g ai/hl, 5DAA3, Trial 1, read-out: % Efficacy on Nymphs): 66% | Emax ([2]; 25 g ai/hl, 5DAA3, Trial 2, read-out: % Efficacy on Nymphs): 66% | Emax ([2]; 25 g ai/hl, 10DAA2, Trial 1, read-out: % Efficacy on Nymphs): 65% | Emax ([2]; 25 g ai/hl, 10DAA2, Trial 2, read-out: % Efficacy on Nymphs): 65% | Emax ([2]; 25 g ai/hl, 10DAA3, Trial 1, read-out: % Efficacy on Nymphs): 53% | Emax ([2]; 25 g ai/hl, 10DAA3, Trial 2, read-out: % Efficacy on Nymphs): 53% | Emax ([2]; 25 g ai/hl, 15DAA3, Trial 1, read-out: % Efficacy on Nymphs): 55% | Emax ([2]; 25 g ai/hl, 15DAA3, Trial 2, read-out: % Efficacy on Nymphs): 55% | Emax ([2]; 25 g ai/hl, 20DAA3, Trial 1, read-out: % Efficacy on Nymphs): 39% | Emax ([2]; 25 g ai/hl, 20DAA3, Trial 2, read-out: % Efficacy on Nymphs): 39% | Emax ([2]; 25 g ai/hl, Avg, Trial 1, read-out: % Efficacy on Nymphs Avg % C): 56% | Emax at 12.5 g/ha ([3]; 120 h, 5DAA, Trial 1): 40% | Emax at 12.5 g/ha ([3]; 120 h, 5DAA, Trial 2): 29% | Emax at 25 g/ha ([3]; 120 h, 5DAA, Trial 1): 50% | Emax at 25 g/ha ([3]; 120 h, 5DAA, Trial 2): 36% | Emax at 12.5 g/ha ([3]; 240 h, 10DAA, Trial 1): 41% | Emax at 12.5 g/ha ([3]; 240 h, 10DAA, Trial 2): 34% | Emax at 25 g/ha ([3]; 240 h, 10DAA, Trial 1): 44% | Emax at 25 g/ha ([3]; 240 h, 10DAA, Trial 2): 45% | Emax at 12.5 g/ha ([3]; 360 h, 15DAA, Trial 1): 58% | Emax at 12.5 g/ha ([3]; 360 h, 15DAA, Trial 2): 35% | Emax at 25 g/ha ([3]; 360 h, 15DAA, Trial 1): 64% | Emax at 25 g/ha ([3]; 360 h, 15DAA, Trial 2): 45% | Emax at 12.5 g/ha ([3]; 480 h, 20DAA, Trial 1): 39% | Emax at 12.5 g/ha ([3]; 480 h, 20DAA, Trial 2): 31% | Emax at 25 g/ha ([3]; 480 h, 20DAA, Trial 1): 42% | Emax at 25 g/ha ([3]; 480 h, 20DAA, Trial 2): 43% | Emax at 12.5 g/ha ([3]; 600 h, 25DAA, Trial 1): 29% | Emax at 12.5 g/ha ([3]; 600 h, 25DAA, Trial 2): 25% | Emax at 25 g/ha ([3]; 600 h, 25DAA, Trial 1): 31% | Emax at 25 g/ha ([3]; 600 h, 25DAA, Trial 2): 35% | Emax at 12.5 g/ha ([3]; 720 h, 30DAA, Trial 1): 22% | Emax at 12.5 g/ha ([3]; 720 h, 30DAA, Trial 2): 19% | Emax at 25 g/ha ([3]; 720 h, 30DAA, Trial 1): 26% | Emax at 25 g/ha ([3]; 720 h, 30DAA, Trial 2): 30% | Emax at 12.5 g/ha ([3]; 840 h, 35DAA, Trial 1): 14% | Emax at 12.5 g/ha ([3]; 840 h, 35DAA, Trial 2): 12% | Emax at 25 g/ha ([3]; 840 h, 35DAA, Trial 1): 26% | Emax at 25 g/ha ([3]; 840 h, 35DAA, Trial 2): 23% | Emax at 12.5 g/ha ([3]; 960 h, 40DAA, Trial 1): 5% | Emax at 12.5 g/ha ([3]; 960 h, 40DAA, Trial 2): 9% | Emax at 25 g/ha ([3]; 960 h, 40DAA, Trial 1): 5% | Emax at 25 g/ha ([3]; 960 h, 40DAA, Trial 2): 10% | Emax at 12.5 g/ha ([4]; 25DAA1, Trial 2): 29% | Emax at 12.5 g/ha ([4]; 30DAA1, Trial 2): 39% | Emax at 12.5 g/ha ([4]; 35DAA1, Trial 2): 22% | Emax at 12.5 g/ha ([4]; 40DAA2, Trial 2): 11% | Emax at 25 g/ha ([4]; 25DAA1, Trial 2): 69% | Emax at 25 g/ha ([4]; 30DAA1, Trial 2): 43% | Emax at 25 g/ha ([4]; 35DAA1, Trial 2): 14% | Emax at 25 g/ha ([4]; 40DAA2, Trial 2): 6% | Emax at 12.5 g/ha ([4]; 240 h, 10DAA, Trial 1): 47% | Emax at 25 g/ha ([4]; 240 h, 10DAA, Trial 1): 50% | Emax at 12.5 g/ha ([4]; 360 h, 15DAA, Trial 1): 21% | Emax at 25 g/ha ([4]; 360 h, 15DAA, Trial 1): 47% | Emax at 12.5 g/ha ([4]; 480 h, 20DAA, Trial 1): 31% | Emax at 25 g/ha ([4]; 480 h, 20DAA, Trial 1): 54% | Emax at 12.5 g/ha ([4]; 600 h, 25DAA, Trial 1): 60% | Emax at 25 g/ha ([4]; 600 h, 25DAA, Trial 1): 50% | Emax at 12.5 g/ha ([4]; 720 h, 30DAA, Trial 1): 47% | Emax at 25 g/ha ([4]; 720 h, 30DAA, Trial 1): 49% | Emax at 12.5 g/ha ([4]; 840 h, 35DAA, Trial 1): 41% | Emax at 25 g/ha ([4]; 840 h, 35DAA, Trial 1): 44% | Emax at 12.5 g/ha ([4]; 960 h, 40DAA, Trial 1): 28% | Emax at 25 g/ha ([4]; 960 h, 40DAA, Trial 1): 33%
